Experimental data from ChEMBL document CHEMBL4118196, “Design and synthesis of a series of bioavailable fatty acid synthase (FASN) KR domain inhibitors for cancer therapy” (Bioorg Med Chem Lett, 2018).
One block for each molecule: values may come before it.

Columns and labels:
HT-29 = test: Antiproliferative activity against human HT-29 cells in culture medium with 10% lipid-reduced serum after 4 days by ATP-Glo assay; format: functional, cell-based; conditions: HT-29, 96 h
A549 [1] = test: Antiproliferative activity against human A549 cells in culture medium with 10% lipid-reduced serum after 4 days by ATP-Glo assay; format: functional, cell-based; conditions: A549, 96 h
[2] = Cmax in mouse at 10 mg/kg, po; format: ADME, organism-based; set-up: dose 10 mg/kg, route oral; conditions: in vivo
[3] = Antiproliferative activity against human MM1R cells in culture medium with 10% lipid-reduced serum after 4 days in presence of palmitate by ATP-Glo assay; format: functional, cell-based; conditions: MM.1R, 96 h
U-266 = test: Antiproliferative activity against human U266 cells in culture medium with 10% lipid-reduced serum after 4 days in presence of palmitate by ATP-Glo assay; format: functional, cell-based; conditions: U-266, 96 h
Cytochrome P450 3A4 = Cytochrome P450 3A4 (Homo sapiens, UniProt P08684); test: Inhibition of human CYP3A4; format: ADME
BT-20 = test: Antiproliferative activity against human BT20 cells in culture medium with 10% lipid-reduced serum after 4 days in presence of palmitate by ATP-Glo assay; format: functional, cell-based; conditions: BT-20, 96 h
[4] = Antiproliferative activity against human LL cells in culture medium with 10% lipid-reduced serum after 4 days in presence of palmitate by ATP-Glo assay; format: functional, cell-based; conditions: 96 h
Cytochrome P450 2C9 = Cytochrome P450 2C9 (Homo sapiens, UniProt P11712); test: Inhibition of human CYP2C9; format: ADME
Sequence of Cytochrome P450 2C9 (P11712 whole entry): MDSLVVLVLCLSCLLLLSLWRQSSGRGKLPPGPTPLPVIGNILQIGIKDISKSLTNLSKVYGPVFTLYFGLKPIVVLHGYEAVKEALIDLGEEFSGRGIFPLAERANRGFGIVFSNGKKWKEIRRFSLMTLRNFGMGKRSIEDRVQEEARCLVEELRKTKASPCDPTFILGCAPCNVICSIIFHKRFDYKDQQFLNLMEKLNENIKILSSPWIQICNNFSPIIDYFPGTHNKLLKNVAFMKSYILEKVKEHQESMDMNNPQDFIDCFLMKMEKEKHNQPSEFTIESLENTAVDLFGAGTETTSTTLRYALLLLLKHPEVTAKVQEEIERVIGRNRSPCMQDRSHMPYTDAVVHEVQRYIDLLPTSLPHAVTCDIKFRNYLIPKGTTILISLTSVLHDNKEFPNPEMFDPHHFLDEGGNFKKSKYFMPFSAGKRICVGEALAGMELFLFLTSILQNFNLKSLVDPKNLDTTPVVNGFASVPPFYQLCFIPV

Cytochrome P450 1A2 = Cytochrome P450 1A2 (Homo sapiens, UniProt P05177); test: Inhibition human CYP1A2; format: ADME
Sequence of Cytochrome P450 1A2 (P05177 whole entry): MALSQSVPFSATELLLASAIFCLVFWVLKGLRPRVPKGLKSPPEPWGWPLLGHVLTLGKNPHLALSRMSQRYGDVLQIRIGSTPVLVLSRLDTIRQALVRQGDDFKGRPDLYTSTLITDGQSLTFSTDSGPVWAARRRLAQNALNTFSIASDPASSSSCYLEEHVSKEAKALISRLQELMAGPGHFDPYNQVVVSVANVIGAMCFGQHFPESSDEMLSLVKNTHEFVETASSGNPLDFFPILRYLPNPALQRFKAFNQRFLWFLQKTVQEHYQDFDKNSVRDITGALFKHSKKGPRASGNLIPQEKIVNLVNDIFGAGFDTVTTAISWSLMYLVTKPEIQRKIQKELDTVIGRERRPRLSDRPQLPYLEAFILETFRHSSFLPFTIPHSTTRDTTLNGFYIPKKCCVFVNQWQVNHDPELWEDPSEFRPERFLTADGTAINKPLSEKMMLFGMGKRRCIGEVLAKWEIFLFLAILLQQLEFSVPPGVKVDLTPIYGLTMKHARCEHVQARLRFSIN

MDA-MB-468 [5] = test: Antiproliferative activity against human MDA-MB-468 cells in culture medium with 10% lipid-reduced serum after 4 days in presence of palmitate by ATP-Glo assay; format: functional, cell-based; conditions: MDA-MB-468, 96 h
[6] = Protein binding in human plasma; format: ADME, cell-free; conditions: read-out: PPB (converted)
NCI-H929 [7] = test: Antiproliferative activity against human NCI-H929 cells in culture medium with 10% lipid-reduced serum after 4 days in presence of palmitate by ATP-Glo assay; format: functional, cell-based; conditions: NCI-H929, 96 h
A549 [8] = test: Antiproliferative activity against human A549 cells in culture medium with 10% lipid-reduced serum after 4 days in presence of palmitate by ATP-Glo assay; format: functional, cell-based; conditions: A549, 96 h
K562 [9] = test: Antiproliferative activity against human K562 cells in culture medium with 10% lipid-reduced serum after 4 days by ATP-Glo assay; format: functional, cell-based; conditions: K562, 96 h
LP-1 = test: Antiproliferative activity against human LP-1 cells in culture medium with 10% lipid-reduced serum after 4 days in presence of palmitate by ATP-Glo assay; format: functional, cell-based; conditions: LP-1, 96 h
[10] = Protein binding in mouse plasma; format: ADME, cell-free; conditions: read-out: PPB (converted)
[11] = Permeability in human Caco2 cells; format: ADME, cell-based; conditions: Caco-2, read-out: permeability
K562 [12] = test: Antiproliferative activity against human K562 cells in culture medium with 10% lipid-reduced serum after 4 days in presence of palmitate by ATP-Glo assay; format: functional, cell-based; conditions: K562, 96 h
[13] = Stability in mouse plasma; format: ADME, cell-free
MDA-MB-468 [14] = test: Antiproliferative activity against human MDA-MB-468 cells in culture medium with 10% lipid-reduced serum after 4 days by ATP-Glo assay; format: functional, cell-based; conditions: MDA-MB-468, 96 h
NCI-H929 [15] = test: Antiproliferative activity against human NCI-H929 cells in culture medium with 10% lipid-reduced serum after 4 days by ATP-Glo assay; format: functional, cell-based; conditions: NCI-H929, 96 h
[16] = AUC in mouse at 10 mg/kg, po; format: ADME, organism-based; conditions: in vivo
PC-3M = test: Antiproliferative activity against human PC3M cells in culture medium with 10% lipid-reduced serum after 4 days by ATP-Glo assay; format: functional, cell-based; conditions: 96 h
[17] = Oral bioavailability in mouse at 10 mg/kg; format: ADME, organism-based; conditions: in vivo
HL-60 [18] = test: Antiproliferative activity against human HL60 cells in culture medium with 10% lipid-reduced serum after 4 days in presence of palmitate by ATP-Glo assay; format: functional, cell-based; conditions: HL-60, 96 h
U2932 [19] = test: Antiproliferative activity against human U2932 cells in culture medium with 10% lipid-reduced serum after 4 days in presence of palmitate by ATP-Glo assay; format: functional, cell-based; conditions: U2932, 96 h
Cytochrome P450 2D6 = Cytochrome P450 2D6 (Homo sapiens, UniProt P10635); test: Inhibition of human CYP2D6; format: ADME
Sequence of Cytochrome P450 2D6 (P10635 whole entry): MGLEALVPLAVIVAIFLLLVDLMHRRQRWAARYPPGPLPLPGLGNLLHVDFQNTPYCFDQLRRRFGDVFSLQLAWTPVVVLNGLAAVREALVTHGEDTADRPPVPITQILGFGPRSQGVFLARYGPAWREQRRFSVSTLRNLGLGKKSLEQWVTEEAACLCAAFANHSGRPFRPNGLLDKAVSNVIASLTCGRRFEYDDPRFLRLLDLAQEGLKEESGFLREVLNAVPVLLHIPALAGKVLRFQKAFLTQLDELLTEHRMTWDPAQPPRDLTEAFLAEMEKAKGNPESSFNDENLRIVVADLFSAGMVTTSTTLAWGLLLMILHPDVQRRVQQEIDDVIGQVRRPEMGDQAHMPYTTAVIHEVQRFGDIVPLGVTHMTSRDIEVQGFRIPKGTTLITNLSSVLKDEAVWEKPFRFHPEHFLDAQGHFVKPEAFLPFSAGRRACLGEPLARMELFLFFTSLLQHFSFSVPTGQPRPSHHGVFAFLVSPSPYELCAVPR

U2932 [20] = test: Antiproliferative activity against human U2932 cells in culture medium with 10% lipid-reduced serum after 4 days by ATP-Glo assay; format: functional, cell-based; conditions: U2932, 96 h
Cytochrome P450 2C8 = Cytochrome P450 2C8 (Homo sapiens, UniProt P10632); test: Inhibition of human CYP2C8; format: ADME
Sequence of Cytochrome P450 2C8 (P10632 whole entry): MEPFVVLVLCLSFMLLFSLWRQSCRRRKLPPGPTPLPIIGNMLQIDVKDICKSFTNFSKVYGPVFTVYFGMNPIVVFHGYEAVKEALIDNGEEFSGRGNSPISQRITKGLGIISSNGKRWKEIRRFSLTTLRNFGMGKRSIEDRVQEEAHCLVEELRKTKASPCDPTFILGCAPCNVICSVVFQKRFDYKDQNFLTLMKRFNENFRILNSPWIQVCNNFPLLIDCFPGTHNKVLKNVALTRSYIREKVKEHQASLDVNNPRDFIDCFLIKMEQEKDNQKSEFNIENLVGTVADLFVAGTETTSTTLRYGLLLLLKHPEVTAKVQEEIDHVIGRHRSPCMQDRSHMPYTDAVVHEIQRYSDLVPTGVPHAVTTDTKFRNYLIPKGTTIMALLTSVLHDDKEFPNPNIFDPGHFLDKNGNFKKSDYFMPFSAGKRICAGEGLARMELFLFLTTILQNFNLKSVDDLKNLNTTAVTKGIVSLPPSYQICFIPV

[21] = Antiproliferative activity against human LL cells in culture medium with 10% lipid-reduced serum after 4 days by ATP-Glo assay; format: functional, cell-based; conditions: 96 h
MV4-11 [22] = test: Antiproliferative activity against human MV4-11 cells in culture medium with 10% lipid-reduced serum after 4 days in presence of palmitate by ATP-Glo assay; format: functional, cell-based; conditions: MV4-11, 96 h
HL-60 [23] = test: Antiproliferative activity against human HL60 cells in culture medium with 10% lipid-reduced serum after 4 days by ATP-Glo assay; format: functional, cell-based; conditions: HL-60, 96 h
NCI-H460 [24] = test: Antiproliferative activity against human NCI-H460 cells in culture medium with 10% lipid-reduced serum after 4 days in presence of palmitate by ATP-Glo assay; format: functional, cell-based; conditions: NCI-H460, 96 h
NCI-H460 [25] = test: Antiproliferative activity against human NCI-H460 cells in culture medium with 10% lipid-reduced serum after 4 days by ATP-Glo assay; format: functional, cell-based; conditions: NCI-H460, 96 h
OCI-Ly1 [26] = test: Antiproliferative activity against human OCI-LY1 cells in culture medium with 10% lipid-reduced serum after 4 days by ATP-Glo assay; format: functional, cell-based; conditions: OCI-Ly1, 96 h
Cytochrome P450 2C19 = Cytochrome P450 2C19 (Homo sapiens, UniProt P33261); test: Inhibition of human CYP2C19; format: ADME
Sequence of Cytochrome P450 2C19 (P33261 whole entry): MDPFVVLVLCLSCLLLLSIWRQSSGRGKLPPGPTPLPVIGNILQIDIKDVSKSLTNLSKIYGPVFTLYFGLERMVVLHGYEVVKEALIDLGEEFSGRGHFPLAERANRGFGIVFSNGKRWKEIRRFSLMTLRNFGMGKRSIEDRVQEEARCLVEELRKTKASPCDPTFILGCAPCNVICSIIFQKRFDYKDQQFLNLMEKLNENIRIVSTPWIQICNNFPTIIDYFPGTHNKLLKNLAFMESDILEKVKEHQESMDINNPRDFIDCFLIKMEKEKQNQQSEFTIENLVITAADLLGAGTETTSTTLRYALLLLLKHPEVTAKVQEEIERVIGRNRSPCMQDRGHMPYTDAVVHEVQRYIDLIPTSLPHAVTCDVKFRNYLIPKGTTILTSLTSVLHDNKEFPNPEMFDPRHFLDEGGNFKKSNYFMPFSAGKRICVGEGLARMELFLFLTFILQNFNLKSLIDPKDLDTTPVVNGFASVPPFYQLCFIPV

[27] = Half life in mouse at 10 mg/kg, po; format: ADME, organism-based; conditions: in vivo
A2780 [28] = test: Antiproliferative activity against human A2780 cells in culture medium with 10% lipid-reduced serum after 4 days in presence of palmitate by MTT assay; format: functional, cell-based; conditions: A2780, 96 h
[29] = Stability in mouse microsomes; format: ADME, Microsome
[30] = Tmax in mouse at 10 mg/kg, po; format: ADME, organism-based; conditions: in vivo
[31] = Antiproliferative activity against human MM1R cells in culture medium with 10% lipid-reduced serum after 4 days by ATP-Glo assay; format: functional, cell-based; conditions: MM.1R, 96 h
OCI-Ly1 [32] = test: Antiproliferative activity against human OCI-LY1 cells in culture medium with 10% lipid-reduced serum after 4 days in presence of palmitate by ATP-Glo assay; format: functional, cell-based; conditions: OCI-Ly1, 96 h
MV4-11 [33] = test: Antiproliferative activity against human MV4-11 cells in culture medium with 10% lipid-reduced serum after 4 days by ATP-Glo assay; format: functional, cell-based; conditions: MV4-11, 96 h
LNCaP = test: Antiproliferative activity against human LNCAP cells in culture medium with 10% lipid-reduced serum after 4 days by ATP-Glo assay; format: functional, cell-based; conditions: 96 h
A2780 [34] = test: Antiproliferative activity against human A2780 cells in culture medium with 10% lipid-reduced serum after 4 days by MTT assay; format: functional, cell-based; conditions: A2780, 96 h
Fatty acid synthase = Fatty acid synthase (Homo sapiens, UniProt P49327)
Sequence of Fatty acid synthase (P49327 whole entry): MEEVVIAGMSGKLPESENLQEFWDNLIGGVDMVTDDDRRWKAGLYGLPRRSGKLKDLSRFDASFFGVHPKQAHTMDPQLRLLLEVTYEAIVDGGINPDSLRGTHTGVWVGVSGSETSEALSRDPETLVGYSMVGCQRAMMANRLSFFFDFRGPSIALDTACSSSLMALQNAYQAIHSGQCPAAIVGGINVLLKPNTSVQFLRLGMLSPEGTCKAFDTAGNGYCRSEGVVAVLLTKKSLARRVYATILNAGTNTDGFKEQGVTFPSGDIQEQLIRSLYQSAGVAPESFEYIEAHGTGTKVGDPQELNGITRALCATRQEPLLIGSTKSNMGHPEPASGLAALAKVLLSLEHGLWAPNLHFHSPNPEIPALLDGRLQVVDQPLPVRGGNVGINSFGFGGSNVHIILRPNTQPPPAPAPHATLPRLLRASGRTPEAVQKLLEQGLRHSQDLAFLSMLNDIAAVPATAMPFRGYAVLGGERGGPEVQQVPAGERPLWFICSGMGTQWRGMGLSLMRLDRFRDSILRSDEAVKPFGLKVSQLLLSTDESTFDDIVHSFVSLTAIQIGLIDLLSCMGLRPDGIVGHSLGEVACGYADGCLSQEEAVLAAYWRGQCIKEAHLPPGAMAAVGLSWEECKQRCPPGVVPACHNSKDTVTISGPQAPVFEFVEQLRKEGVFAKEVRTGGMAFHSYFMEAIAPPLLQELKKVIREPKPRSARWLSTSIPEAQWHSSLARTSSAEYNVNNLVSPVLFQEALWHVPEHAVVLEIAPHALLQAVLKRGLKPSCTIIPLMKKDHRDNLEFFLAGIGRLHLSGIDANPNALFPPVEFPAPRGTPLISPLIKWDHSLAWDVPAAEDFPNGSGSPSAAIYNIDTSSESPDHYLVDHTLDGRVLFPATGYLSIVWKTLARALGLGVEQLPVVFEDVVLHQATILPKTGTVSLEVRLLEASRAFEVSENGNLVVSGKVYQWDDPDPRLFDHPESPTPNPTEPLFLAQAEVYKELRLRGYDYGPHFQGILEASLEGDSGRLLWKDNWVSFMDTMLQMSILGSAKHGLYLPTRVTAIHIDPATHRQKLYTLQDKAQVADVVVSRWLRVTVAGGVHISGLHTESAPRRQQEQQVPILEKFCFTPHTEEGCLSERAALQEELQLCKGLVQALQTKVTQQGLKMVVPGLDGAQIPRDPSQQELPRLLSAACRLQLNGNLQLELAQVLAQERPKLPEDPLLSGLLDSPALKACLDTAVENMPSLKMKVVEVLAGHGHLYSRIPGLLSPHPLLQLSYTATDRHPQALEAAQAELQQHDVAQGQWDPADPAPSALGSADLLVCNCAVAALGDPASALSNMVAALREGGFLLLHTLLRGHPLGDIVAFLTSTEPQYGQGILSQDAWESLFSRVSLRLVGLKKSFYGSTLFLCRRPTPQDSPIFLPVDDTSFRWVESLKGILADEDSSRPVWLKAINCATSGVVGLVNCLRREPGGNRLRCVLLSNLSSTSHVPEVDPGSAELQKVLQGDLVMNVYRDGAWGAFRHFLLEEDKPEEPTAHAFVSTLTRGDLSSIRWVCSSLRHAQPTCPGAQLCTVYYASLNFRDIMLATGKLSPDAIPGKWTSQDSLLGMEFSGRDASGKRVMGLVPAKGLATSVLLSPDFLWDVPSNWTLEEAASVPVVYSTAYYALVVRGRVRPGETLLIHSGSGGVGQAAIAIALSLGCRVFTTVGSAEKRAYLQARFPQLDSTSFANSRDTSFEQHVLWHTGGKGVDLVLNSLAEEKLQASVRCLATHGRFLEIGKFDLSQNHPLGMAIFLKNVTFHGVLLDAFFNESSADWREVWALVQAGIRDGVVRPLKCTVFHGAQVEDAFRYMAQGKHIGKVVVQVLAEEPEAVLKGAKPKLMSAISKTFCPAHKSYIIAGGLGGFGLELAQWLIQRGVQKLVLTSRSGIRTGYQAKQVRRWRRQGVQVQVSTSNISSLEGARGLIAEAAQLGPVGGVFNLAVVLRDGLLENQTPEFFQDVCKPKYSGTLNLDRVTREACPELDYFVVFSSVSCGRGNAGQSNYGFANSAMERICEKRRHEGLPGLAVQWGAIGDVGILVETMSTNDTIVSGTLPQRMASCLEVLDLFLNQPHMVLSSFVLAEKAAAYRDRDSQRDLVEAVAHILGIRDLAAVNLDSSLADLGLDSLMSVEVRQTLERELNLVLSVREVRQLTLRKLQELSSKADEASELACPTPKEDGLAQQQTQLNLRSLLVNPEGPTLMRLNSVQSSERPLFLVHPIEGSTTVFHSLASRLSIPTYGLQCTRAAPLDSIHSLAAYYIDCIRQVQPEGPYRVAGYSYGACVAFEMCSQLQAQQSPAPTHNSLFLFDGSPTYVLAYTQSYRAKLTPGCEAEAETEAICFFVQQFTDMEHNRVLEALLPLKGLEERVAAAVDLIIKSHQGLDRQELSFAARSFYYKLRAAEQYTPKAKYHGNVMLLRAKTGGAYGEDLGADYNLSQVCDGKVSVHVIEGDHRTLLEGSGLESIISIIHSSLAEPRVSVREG
Description: Inhibition of human full length FASN using [3H]-acetyl-CoA/malonyl-CoA as substrate after 60 mins in presence of NADPH by scintillation proximity assay

EC50 (HT-29): 7940 nM
EC50 (A549 [1]): 20 nM
Cmax [2]: 2030 ng/mL
IC50 (Cytochrome P450 3A4): > 10000 nM
EC50 (BT-20): > 10000 nM
IC50 (Cytochrome P450 2C9): 7900 nM
IC50 (Cytochrome P450 1A2): > 10000 nM
EC50 (MDA-MB-468 [5]): > 10000 nM
fraction unbound [6]: 0.059
EC50 (NCI-H929 [7]): > 10000 nM
EC50 (A549 [8]): > 10000 nM
EC50 (K562 [9]): 110 nM
fraction unbound [10]: 0.034
Papp [11]: 7.1 ×10⁻⁶ cm/s
EC50 (K562 [12]): 9330 nM
Stability [13]: Stable
EC50 (MDA-MB-468 [14]): 26 nM
EC50 (NCI-H929 [15]): 3720 nM
AUC [16]: 11100 ng·h/mL
EC50 (PC-3M): 25 nM
bioavailability [17]: 60.6%
EC50 (HL-60 [18]): 6310 nM
IC50 (Cytochrome P450 2D6): > 10000 nM
IC50 (Cytochrome P450 2C8): > 10000 nM
EC50 (MV4-11 [22]): > 10000 nM
EC50 (HL-60 [23]): 120 nM
EC50 (NCI-H460 [24]): > 10000 nM
EC50 (NCI-H460 [25]): 36 nM
EC50 (OCI-Ly1 [26]): 55 nM
IC50 (Cytochrome P450 2C19): > 10000 nM
half-life [27]: 2.5 h
EC50 (A2780 [28]): > 10000 nM
Stability [29]: Stable
Tmax [30]: 2 h
EC50 (OCI-Ly1 [32]): 6760 nM
EC50 (MV4-11 [33]): 59 nM
EC50 (LNCaP): 66 nM
EC50 (A2780 [34]): 13 nM
Structure (SMILES): Cn1cc(-c2ccc(-c3ccc(C4=NC5(CC5)C(=O)N4C[C@@H]4CCN(C(=O)C5CC5)C4)cc3)cc2)cn1
EC50 [3]: > 10000 nM
EC50 (U-266): > 10000 nM
EC50 [4]: 9330 nM
EC50 (LP-1): > 10000 nM
EC50 (U2932 [19]): 3020 nM
EC50 (U2932 [20]): 190 nM
EC50 [21]: 590 nM
EC50 [31]: 170 nM

IC50 (Fatty acid synthase): 300 nM
Structure (SMILES): O=C([C@H]1CCCO1)N1CC[C@@H](CN2C(=O)C3(CC3)N=C2c2ccc(-c3ccc4occc4c3)cc2)C1

IC50 (Fatty acid synthase): 36 nM
Structure (SMILES): O=C(N1CC[C@@H](CN2C(=O)C3(CC3)N=C2c2ccc(-c3ccc4occc4c3)cc2)C1)C1(O)CC1

IC50 (Fatty acid synthase): 170 nM
Structure (SMILES): O=C(CC(F)(F)F)N1CC[C@@H](CN2C(=O)C3(CC3)N=C2c2ccc(-c3ccc4occc4c3)cc2)C1

IC50 (Fatty acid synthase): 23 nM
Structure (SMILES): O=C(C1CC1)N1CC[C@@H](CN2C(=O)C3(CC3)N=C2c2ccc(-c3ccc(-c4ccncc4)cc3)cc2)C1

IC50 (Fatty acid synthase): 450 nM
Structure (SMILES): Cn1ccc(C(=O)N2CC[C@@H](CN3C(=O)C4(CC4)N=C3c3ccc(-c4ccc5occc5c4)cc3)C2)n1

IC50 (Fatty acid synthase): 28 nM
Structure (SMILES): CC1(C(=O)N2CC[C@@H](CN3C(=O)C4(CC4)N=C3c3ccc(-c4ccc5occc5c4)cc3)C2)CC1

IC50 (Fatty acid synthase): 33100 nM
Structure (SMILES): Cn1ncc2cc(-c3cnc(C4=NC5(CC5)C(=O)N4C[C@@H]4CCN(C(=O)C5CC5)C4)nc3)ccc21

IC50 (Fatty acid synthase): 79 nM
Structure (SMILES): O=C([C@@H]1CCCO1)N1CC[C@@H](CN2C(=O)C3(CC3)N=C2c2ccc(-c3ccc4occc4c3)cc2)C1

IC50 (Fatty acid synthase): 590 nM
Structure (SMILES): N#CC1(C(=O)N2CC[C@@H](CN3C(=O)C4(CC4)N=C3c3ccc(-c4ccc5occc5c4)cc3)C2)CC1
